Experimental data as given in patent US4594345A, “Methylflavone-8-carboxylates” (Nippon Shinyaku Co. Ltd., priority 1982, dated 1986).

Experiments:
carrageenin edema = assay: Carrageenin edema in hind foot of rat (anti-inflammatory action); format: in vivo, rat (SD strain); design: concentration or dose not given beside the values; details: rats, oral one hour prior to carrageenin; foot volume three hours after
Description: Anti-inflammatory action was evaluated by measuring the effect of the compounds (I) in inhibiting carrageenin edema as illustrated below.
Carrageenin edema in hind foot of rat.
SD strain rats of about 150 grams body weight were used; each group consisted of five rats. Thus, 0.1 ml of 0.5% carrageenin solution in physiological saline water was hypodermically injected to the right hind foot of rat. The test compound was given orally to rats one hour prior to the above carrageenin treatment. Then the volume of the foot before and three hours after the carrageenin treatment was measured and the difference was compared with that of the control group.

male mice = assay: Acute toxicity, oral, observed for two weeks; format: in vivo; details: oral 4000 mg/kg, dead/total
Description: Acute toxicity is observed for two weeks by oral adminsitration of 4000 mg/kg of the test compounds to male mice. One group consists of four mice. Numbers of dead mice are shown in numerators.

[1] = test system: passive cutaneous anaphylaxis (PCA); assay: Passive cutaneous anaphylaxis assay (PCA) in rats; format: in vivo, rat (Wister strain); details: Rattus norvegicus, po, 1 h, oral 10 mg/kg, one hour before antigen, read-out: PCA Inhibition Ratio %
Description: (§1) The effect of the compounds (I) of the present invention in the treatment of asthma and allergic diseases were evaluated by a passive cutaneous anaphylaxis assay (PCA) in rats and by measuring anti-SRS-A action using ileus of guinea pigs.
(i) Antiserum abundant in homocytotropic antibody is prepared by the same method as Tada and Okumura did (cf. Journal of Immunology, volume 106, page 1002, […]). Thus, one mg (calculated as an amount of protein) of DNP-As (2,4-dinitrophenyl-coupled ascaris extract) prepared by methods of Strejan and Campbell (Journal of Immunology, volume 98, page 893, 1971) and of Eisen (Journal of American Chemical Society, volume 85, page 4593, 1953) and […] pertussis vaccine are administered to each paw of Wister strain rats (180 to 200 grams body weights) by dividing the dose by four. Five days later, 0.5 mg of DNP-As is adminstered into muscle of back. Eight days later from the initial immunization, blood is taken from descending aorta under anesthetizing with ether, the resulting serum is stored at -80° C. and is melted before use.
(ii) Effect of tested compounds is investigated as follows:
Anti-serum obtained by the method (i) is diluted with physiological saline solution double by double successively and 0.05 ml of each diluted solution is administered into back of Wister strain rats (140 to 160 grams body weight) subcutaneously. After 72 hours, a solution of 2 mg (calculated as protein) of DNP-As and 2.5 mg of Evand Blue dissolved in 1 ml of physiological saline solution is administered intravenously at a dose of 5 ml/kg. After thirty minutes from antigen solution administration, the animals are killed and diameters of blue spots appeared at the place where antiserum is administered are measured. The PCA test is conducted by the same method as already described using a diluted solutions of antiserum which always show 10 mm or more of spot diameters and the effect of the test compounds is judged. Thus, antiserum diluted solutions are administered to two places in back. Test compounds are administered orally at the dose of 10 mg/kg one hour before administration of antigen solution. From the skin of reacted parts of killed animals, leaked or emitted dyestuff is extracted [cf. Baeck and Steinetz: J. Pharmacol. Exp. Ther., Vol. 131, page 400 (1961)] and the amount of the dyestuff is measured. The inhibition ratio is calculated by the following expression: [formula] in which R' is an amount of dyestuff in the group treated with the test compounds and A is that in the control group.

SRS-A = assay: Anti-SRS-A action (SRS-A induced shrinkage of guinea pig ileus); design: species or system guinea pig (Hartley strain male); details: treated five minutes before SRS-A (20 units), 5 min; for SRS-A Inhibition Ratio % 10^-6 M: 1 µM; for SRS-A Inhibition Ratio % 10^-7 M: 0.1 µM
Description: as §1
Anti-SRS-A action (An anti-action against slow reacting substance of anaphylaxie)
Hartley strain male guinea pigs (300 to 350 grams body weight) are killed and 1.0 to 1.5 cm of ileus is immediately excised from ileocecal parts and is suspended in 10 ml of Tyrode solution (95% O2 -5% CO2 saturation) containing 10^-7 g/ml of atropine and 10^-6 g/ml of pyrilamine. SRS-A (20 units) (the amount of SRS-A showing the same shrinkage as 5 ng of histamine is defined as one unit) prepared by using sensitized guinea pig lung is given to cause shrinkage there. Then antagonistic action of test compounds treated five minutes ago against the shrinkage is measured and recorded via isotonic transducer. [formula] in which A' is a height of shrinkage of SRS-A + test compound and A is that of SRS-A.

mast cells = details: believed; cited from earlier work
allergic asthma = details: cited from earlier work

## CCOc1ccccc1-c1oc2c(C(=O)OCCO)cccc2c(=O)c1C [Example 4, Beta-Hydroxyethyl 2'-ethoxy-3-methylflavone 8-carboxylate]
Carrageenin edema
  % Inhibition (carrageenin edema): 33.9%
Male mice
  Lethal Ratio: 0/4
[1]
  inhibition in vivo at 10 mg/kg: 20.5%
SRS-A
  SRS-A Inhibition Ratio % 10^-6 M: 67.2%
  SRS-A Inhibition Ratio % 10^-7 M: 42.4%

## Cc1c(-c2ccccc2OC(C)C)oc2c(C(=O)O)cccc2c1=O [Example 20, 2'-isopropoxy-3-methylflavone-8-carboxylic acid]
Carrageenin edema
  % Inhibition (carrageenin edema): 32.5%
[1]
  inhibition in vivo at 10 mg/kg: 20.7%
SRS-A
  SRS-A Inhibition Ratio % 10^-6 M: 38.5%
  SRS-A Inhibition Ratio % 10^-7 M: 20.4%

## CCN(CC)C(=O)c1cccc2c(=O)c(C)c(-c3ccccc3C)oc12 [Example 35, 2',3-dimethylflavone-8-carboxylic acid N,N-diethylamide]
Carrageenin edema
  % Inhibition (carrageenin edema): 13.0%
[1]
  inhibition in vivo at 10 mg/kg: 13.3%
SRS-A
  SRS-A Inhibition Ratio % 10^-6 M: 48.8%
  SRS-A Inhibition Ratio % 10^-7 M: 18.0%

## CCN(CC)C(=O)c1cccc2c(=O)c(C)c(-c3ccc(C(C)C)cc3)oc12 [Example 48, 4'-isopropyl-3-methylflavone-8-carboxylic acid N,N-diethylamide]
Carrageenin edema
  % Inhibition (carrageenin edema): 23.2%
Male mice
  Lethal Ratio: 0/4
[1]
  inhibition in vivo at 10 mg/kg: 27.2%
SRS-A
  SRS-A Inhibition Ratio % 10^-6 M: 100%
  SRS-A Inhibition Ratio % 10^-7 M: 23.3%

## Cc1c(-c2ccc(C(C)(C)C)cc2)oc2c(C(=O)O)cccc2c1=O [Example 55, 4'-tertiary butyl-3-methylflavone-8-carboxylic acid]
Carrageenin edema
  % Inhibition (carrageenin edema): 19.1%
[1]
  inhibition in vivo at 10 mg/kg: 20.3%
SRS-A
  SRS-A Inhibition Ratio % 10^-6 M: 100%
  SRS-A Inhibition Ratio % 10^-7 M: 21.1%

## CCCCCc1ccc(-c2oc3c(C(=O)O)cccc3c(=O)c2C)cc1 [Example 58, 3-methyl-4'-n-pentylflavone-8-carboxylic acid]
Carrageenin edema
  % Inhibition (carrageenin edema): 31.9%
Male mice
  Lethal Ratio: 0/4
[1]
  inhibition in vivo at 10 mg/kg: 28.8%
SRS-A
  SRS-A Inhibition Ratio % 10^-6 M: 40.0%
  SRS-A Inhibition Ratio % 10^-7 M: 10.3%

## O=C(O)c1cc(=O)c2c(OCC(O)COc3cccc4oc(C(=O)O)cc(=O)c34)cccc2o1 [sodium cromoglicate]
Mast cells
  inhibition of emission of chemical mediators: inhibits emission of chemical mediators from mast cells
Allergic asthma; in vivo
  duration of action: its action is of short duration
Allergic asthma; oral
  pharmaceutical effect by oral administration: does not show any pharmaceutical effect by oral administration
Allergic asthma; reported by Cox, et al.
  effect in allergic asthma: effective for allergic asthma
